Assays:
TREK-2 Y315A = target: T1, TREK-2 Y315A (Homo sapiens, UniProt P57789, Y310A); assay: Single-channel recordings of TREK-2 Y315A mutant in excised patches from HEK293 cells; assay type: cell-based; conditions: 10 µM NFx; before desensitization (effect dramatically reduced within ∼30 s)
T1 construct: expressed in transfected cells; host or cells: HEK293 cells, transient transfection with pcDNA3
T1 sequence (P57789 1-543 isoform P57789-4 Y315A): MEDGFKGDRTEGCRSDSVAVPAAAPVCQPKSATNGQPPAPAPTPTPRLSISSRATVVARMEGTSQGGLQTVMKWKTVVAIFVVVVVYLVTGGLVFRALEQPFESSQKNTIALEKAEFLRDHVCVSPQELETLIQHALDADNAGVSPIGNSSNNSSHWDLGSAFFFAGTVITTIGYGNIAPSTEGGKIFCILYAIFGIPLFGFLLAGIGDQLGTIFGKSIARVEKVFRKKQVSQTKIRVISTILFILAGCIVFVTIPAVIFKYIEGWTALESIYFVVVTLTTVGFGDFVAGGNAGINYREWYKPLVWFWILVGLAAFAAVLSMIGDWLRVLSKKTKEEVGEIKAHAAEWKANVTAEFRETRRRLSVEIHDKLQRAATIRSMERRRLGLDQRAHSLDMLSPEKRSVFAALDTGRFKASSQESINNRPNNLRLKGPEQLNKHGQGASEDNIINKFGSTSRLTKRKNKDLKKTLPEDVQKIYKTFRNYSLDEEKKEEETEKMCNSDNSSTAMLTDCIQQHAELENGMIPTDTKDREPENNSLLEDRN
Protocol: HEK293 cells were cultured in DMEM (Sigma) containing 10% FBS (Life Technologies), 3 mM glucose, and 2 mM glutamine at 37°C in a humidified atmosphere of 5% CO2/[…] at 37°C. Cells were transiently transfected with 0.2 µg channel pcDNA3 per dish using FuGENE 6 according to the manufacturer’s instructions. Cells were used 1–2 d after transfection.
For currents recorded in Xenopus laevis oocytes, giant-patch electrodes were pulled from thick-walled borosilicate glass and polished to give pipette resistances of ∼0.3–0.5 MΩ when filled with patch solution. […] Patches were perfused via a gravity-flow perfusion system and a HEKA EPC 10 USB single computer–controlled amplifier was used and currents recorded using a Patchmaster v2 × 90.5 (HEKA Electronics), filtered at 1 kHz, and sampled at 10 kHz. For currents recorded in HEK293 cells, patch electrodes were pulled from thick-walled borosilicate glass and polished to give pipette resistances of ∼3–5 MΩ when filled with patch solution. The currents were recorded from excised patches with both intracellular and extracellular solution containing 200 mM KCl and 10 mM HEPES (pH 6.0 with KOH). […] Data were acquired with pClamp and recorded using an Axopatch 200B (Molecular Devices), filtered at 5 kHz, and sampled at 200 kHz. Single-channel currents were analyzed in an identical manner to those obtained from bilayers (see above). […]

[1] = Electrostriction measurement of membrane elasticity; assay type: physicochemical; conditions: 1–1,000 µM NFx
Protocol: Membrane elasticity measurements were performed as described previously ([Vitovic et al., 2013]). Briefly, a 1 kHz sine wave with an amplitude of 100 mV was applied to the membrane using a wave generator (Rigol DG821; Rigol Technologies). Due to the nonlinear dependence of membrane capacitance on the voltage V [C = C0 (1 + αV^2)], where C0 is the capacitance at V = 0 and α is the electrostriction coefficient, a third current harmonic with frequency 3 kHz and amplitude A3 is generated in addition to the basic first current harmonic, A1 (frequency 1 kHz).

- effect on the modulus of elasticity (E⊥) [1]: no obvious effect
SMILES: NCCC(Oc1ccc(C(F)(F)F)cc1)c1ccccc1 (centres unmarked) [NFx, norfluoxetine]
- initial reduction of channel Po (TREK-2 Y315A): > 90%

Source: paper PMC8155809 (The Journal of General Physiology, 2021)
